Data: ChEMBL document CHEMBL3797079, “Synergistic reduction of HIV-1 infectivity by 5-azacytidine and inhibitors of ribonucleotide reductase” (Bioorg Med Chem, 2016)
Activity calls are given as the source filed them. The calls are words filed in the database; no cut-off is given here.

Key:
U373-MAGI [1] = test: Effect on dRGU-TP level in human U373-MAGI cells at 200 uM preincubated for 2 hrs followed by 5-aza-dC addition measured after 4 hrs by LC-MS/MS analysis; type: functional, cell-based
U373-MAGI [2] = test: Reduction in dCTP level in human U373-MAGI cells at 200 uM preincubated for 2 hrs followed by 5-aza-dC addition measured after 4 hrs by LC-MS/MS analysis relative to 5-aza-dC; type: functional, cell-based
[3] = test system: Human immunodeficiency virus 1; test: Antiviral activity against VSV-G pseudotyped HIV-1 NL4-3 infected in human U373-MAGI cells assessed as increase in mutation frequency at 50 uM incubated for 4 hrs prior to infection measured at 72 hrs post infection by illumina sequencing method; type: functional
[4] = test system: Human immunodeficiency virus 1; test: (§1) Potentiation of 5-Aza-C-induced antiviral activity against VSV-G pseudotyped HIV-1 NL4-3 infected in human U373-MAGI cells assessed as increase in total mutation frequency at 50 uM incubated for 4 hrs preinfection followed by 5-Aza-C addition for 2 hrs preinfection and subsequent viral infection measured at 72 hrs post infection by illumina sequencing method relative to control; type: functional, organism-based
[5] = test system: Human immunodeficiency virus 1; test: as §1, with “5-Aza-dC-induced” for “5-Aza-C-induced”, “in” for “in total mutation”, “frequency of G to C transversion” for “frequency”; type: functional, organism-based
U373-MAGI [6] = test: Reduction in dGTP level in human U373-MAGI cells at 200 uM after 6 hrs by LC-MS/MS analysis; type: functional, cell-based
U373-MAGI [7] = test: Reduction in dATP level in human U373-MAGI cells at 200 uM after 6 hrs by LC-MS/MS analysis; type: functional, cell-based
U373-MAGI [8] = test: Effect on 5-aza-dCTP level in human U373-MAGI cells at 50 uM preincubated for 2 hrs followed by 5-aza-dC addition measured after 4 hrs by LC-MS/MS analysis; type: functional, cell-based
U373-MAGI [9] = test: Reduction in dRGU-TP level in human U373-MAGI cells at 200 uM preincubated for 2 hrs followed by 5-aza-C addition measured after 4 hrs by LC-MS/MS analysis; type: functional, cell-based
[10] = test system: Human immunodeficiency virus 1; test: as §1, with “5-Aza-dC-induced” for “5-Aza-C-induced”, “in” for “in total mutation”, “frequency of C to G transversion” for “frequency”; type: functional, organism-based
[11] = test system: Human immunodeficiency virus 1; test: Potentiation of 5-Aza-dC-induced antiviral activity against VSV-G pseudotyped HIV-1 NL4-3 infected in human U373-MAGI cells assessed as reduction in U5-gag level at 50 uM after 2 to 72 hrs by qPCR method; type: functional, organism-based
[12] = test system: Human immunodeficiency virus 1; test: Potentiation of 5-Aza-C-induced antiviral activity against VSV-G pseudotyped HIV-1 NL4-3 infected in human U373-MAGI cells assessed as reduction in gag level at 50 uM after 2 to 72 hrs by qPCR method; type: functional, organism-based
[13] = test system: Human immunodeficiency virus 1; test: Antiviral activity against VSV-G pseudotyped HIV-1 NL4-3 infected in human U373-MAGI cells assessed as Pol mutation at 50 uM incubated for 4 hrs prior to infection measured at 72 hrs post infection by illumina sequencing method (reference value: 18.5%); type: functional
[14] = test system: Human immunodeficiency virus 1; test: Antiviral activity against VSV-G pseudotyped HIV-1 NL4-3 infected in human U373-MAGI cells assessed as Env mutation at 50 uM incubated for 4 hrs prior to infection measured at 72 hrs post infection by illumina sequencing method (reference value: 21.4%); type: functional
[15] = test system: Human immunodeficiency virus 1; test: Antiviral activity against VSV-G pseudotyped HIV-1 NL4-3 infected in human U373-MAGI cells assessed as increase in frequency of T to A transversion at 50 uM incubated for 4 hrs prior to infection measured at 72 hrs post infection by illumina sequencing method relative to control; type: functional
[16] = test system: Human immunodeficiency virus 1; test: Antiviral activity against VSV-G pseudotyped HIV-1 NL4-3 infected in human U373-MAGI cells assessed as increase in frequency of T to G transversion at 50 uM incubated for 4 hrs prior to infection measured at 72 hrs post infection by illumina sequencing method relative to control; type: functional
[17] = test system: Human immunodeficiency virus 1; test: as §1, with “Pol” for “increase in total”, “mutation” for “mutation frequency”, “(reference value: 18.5%)” for “relative to control”; type: functional
[18] = test system: Human immunodeficiency virus 1; test: as §1, with “Vif” for “increase in total”, “mutation” for “mutation frequency”, “(reference value: 19.2%)” for “relative to control”; type: functional
[19] = test system: Human immunodeficiency virus 1; test: as §1, with “Env” for “increase in total”, “mutation” for “mutation frequency”, “(reference value: 21.4%)” for “relative to control”; type: functional
[20] = test system: Human immunodeficiency virus 1; test: as §1, with “5-Aza-dC-induced” for “5-Aza-C-induced”, “Pol” for “increase in total”, “mutation” for “mutation frequency”, “(reference value: 18.5%)” for “relative to control”; type: functional
[21] = test system: Human immunodeficiency virus 1; test: as §1, with “5-Aza-dC-induced” for “5-Aza-C-induced”, “Vif” for “increase in total”, “mutation” for “mutation frequency”, “(reference value: 19.2%)” for “relative to control”; type: functional
[22] = test system: Human immunodeficiency virus 1; test: as §1, with “[…]” for “5-Aza-C-induced”, “Env” for “increase in total”, “mutation” for “mutation frequency”, “(reference value: 21.4%)” for “relative to control”; type: functional
[23] = test system: Human immunodeficiency virus 1; test: as §1, with “5-Aza-dC-induced” for “5-Aza-C-induced”, “Nef” for “increase in total”, “mutation” for “mutation frequency”, “(reference value: 22.6%)” for “relative to control”; type: functional
[24] = test system: Human immunodeficiency virus 1; test: Potentiation of 5-Aza-C-induced antiviral activity against VSV-G pseudotyped HIV-1 NL4-3 infected in human U373-MAGI cells assessed as decrease in 5-Aza-C EC50 at 50 uM preincubated for 2 hrs followed by 5-Aza-C addition for 2 hrs and subsequent viral infection measured at 72 hrs post infection by flow cytometric analysis relative to control; type: functional
[25] = Cytotoxicity against human U373-MAGI cells at 50 uM measured at 72 hrs by Celltiter-Glo luminescent cell viability assay; type: cell-based
[26] = test system: Human immunodeficiency virus 1; test: Antiviral activity against VSV-G pseudotyped HIV-1 NL4-3 infected in human U373-MAGI cells assessed as reduction in viral infectivity preincubated for 2 to 8 hrs followed by viral infection measured at 72 hrs post infection by flow cytometric analysis; type: functional, organism-based
[27] = test system: Human immunodeficiency virus 1; test: Potentiation of 5-Aza-C-induced antiviral activity against VSV-G pseudotyped HIV-1 NL4-3 infected in human U373-MAGI cells assessed as reduction in U5-gag level at 50 uM after 2 to 72 hrs by qPCR method; type: functional, organism-based
[28] = test system: Human immunodeficiency virus 1; test: Potentiation of 5-Aza-dC-induced antiviral activity against VSV-G pseudotyped HIV-1 NL4-3 infected in human U373-MAGI cells assessed as reduction in viral infectivity at 25 uM preincubated for 2 hrs followed by 5-Aza-dC addition for 2 hrs and subsequent viral infection measured at 72 hrs post infection by flow cytometric analysis; type: functional, organism-based
U373-MAGI [29] = test: Reduction in 5-aza-dCTP level in human U373-MAGI cells at 50 uM preincubated for 2 hrs followed by 5-aza-C addition measured after 4 hrs by LC-MS/MS analysis; type: functional, cell-based
U373-MAGI [30] = test: Reduction in 5-aza-dCTP level in human U373-MAGI cells at 200 uM preincubated for 2 hrs followed by 5-aza-C addition measured after 4 hrs by LC-MS/MS analysis; type: functional, cell-based

**Q.** For Oc1ccc(/C=C/c2cc(O)cc(O)c2)cc1 [RESVERATROL], which Activity (U373-MAGI [1]) is on record?
**A.** inactive

**Q.** What about the Activity (U373-MAGI [2]) of the same compound?
**A.** Active

**Q.** What about the “fold change (FC)” value [3] of the same compound?
**A.** 1.5

**Q.** And the Activity [4]?
**A.** inactive

**Q.** What about the Activity [5] of the same compound?
**A.** inactive

**Q.** And the Activity (U373-MAGI [6])?
**A.** Active

**Q.** And the Activity (U373-MAGI [7])?
**A.** Active

**Q.** What about the Activity (U373-MAGI [8]) of the same compound?
**A.** inactive

**Q.** And the Activity (U373-MAGI [9])?
**A.** Active

**Q.** What about the Activity [10] of the same compound?
**A.** inactive

**Q.** And the Activity [11]?
**A.** Active

**Q.** And the Activity [12]?
**A.** Active

**Q.** And the Activity [13]?
**A.** 19%

**Q.** What about the Activity [14] of the same compound?
**A.** 22.5%

**Q.** And the “fold change (FC)” value [15]?
**A.** 1.8

**Q.** And the “fold change (FC)” value [16]?
**A.** 3.2

**Q.** What about the Activity [17] of the same compound?
**A.** 21.9%

**Q.** And the Activity [18]?
**A.** 22.6%

**Q.** What about the Activity [19] of the same compound?
**A.** 22.8%

**Q.** What about the Activity [20] of the same compound?
**A.** 18.9%

**Q.** And the Activity [21]?
**A.** 25.1%

**Q.** And the Activity [22]?
**A.** 20.1%

**Q.** What about the Activity [23] of the same compound?
**A.** 20.3%

**Q.** What about the “fold change (FC)” value [24] of the same compound?
**A.** 2.5

**Q.** And the Activity [25]?
**A.** Non-toxic

**Q.** And the Activity [26]?
**A.** Active

**Q.** And the Activity [27]?
**A.** Active

**Q.** What about the Activity [28] of the same compound?
**A.** Active

**Q.** What about the Activity (U373-MAGI [29]) of the same compound?
**A.** inactive

**Q.** And the Activity (U373-MAGI [30])?
**A.** Active
